From patent US6423691B1, “Pharmaceutical composition for prophylaxis and therapy of diseases associated with ocular fundus tissue cytography” (Senju Pharmaceutical Co., Ltd., priority 1998, dated 2002)
Peptide text beside a SMILES is read from it. * marks the point of attachment. Cbz = O=C(OCc1ccccc1)*

Assays:
[1] = test system: retinal neurons (ganglion cells) and inner nuclear layer cells; experiment: Effect on rat ocular fundus tissue cytopathy (central retinal artery occlusion/reperfusion); format: in vivo; details: male SD rats, 75 min central retinal artery occlusion, 100 mg/kg i.p. 15 min before occlusion, immediately after reperfusion, then once daily; specimens 5 days after reperfusion
Excerpt: FIG. 1 is a diagrammatic representation of the effect on injury of rat retinal ganglion cells. The ordinate represents the number of ganglion cells. In the diagram, a) denotes a significant difference (p<0.01) from the normal group by Student's t-test; b) denotes a significant difference (p<0.01) from the control group by Student's t-test.
FIG. 2 is a diagrammatic representation of the effect on injury of the rat retinal inner nuclear layer cells. The ordinate represents the number of inner nuclear layer cells. In the diagram, a) denotes a significant difference (p<0.01) from the normal group by Student's t-test; b) denotes a significant difference (p<0.01) from the control group by Student's t-test.
Effect on Rat Ocular Fundus Tissue Cytopathy Method:
Using male SD rats (b. wt. 150 g), the central retinal artery was occluded with an aneurysm clip under anesthesia with 5 w/v % ketamine HCl/2 w/v % xylazine HCl (3:1, 0.5 ml, i.p.) to arrest the blood flow for 75 minutes. In the normal group, the central retinal artery was exposed but ischemia was not introduced. Tissue specimens were prepared 5 days after reperfusion. For use as a tissue specimen, the enucleated eyeball was fixed in 4% formaldehyde and embedded in paraffin in a routine manner. Then, thin sections (3 μm thick) were prepared by transverse slicing at right angles with the retinal surface including the optic disc and stained with hematoxylin-eosin. Under the light microscope, the retinal neurons (ganglion cells) and inner nuclear layer cells were counted per 0.25 mm span of the retinal section at a predetermined distance (1-2 mm) from the optic disc. As the test drug, a parenteral suspention prepared as in Example 3 was administered intraperitoneally in a dose of 100 mg, as Compound 1, per kg body weight 15 minutes before arterial occlusion, immediately after reperfusion, and thereafter once daily (Compound 1 administration group). The control and normal groups were similarly given the vehicle used in Example 3. In the positive control group, Cbz-Val-Phe-H [S.C. Hong et al., Stroke, 25 (3), 663-669, 1994], 100 mg/kg, was similarly administered (MDL administration group).

calpain = experiment: Effect on rat enucleated retina cytopathy under hypoxia (spectrin cleavage, SDS electrophoresis); format: cell-based; details: rat retina incubated under hypoxia in glucose-free RPMI 1640, 3 and 6 hours, 100 μM
Experimental: FIG. 3(a) and FIG. 3(b) are SDS electrophoretic images showing the cleavage product of endocellular spectrin obtained upon homogenation of retina tissues detected after incubation of rat retina tissues under hypoxia, wherein FIG. 3(a) and FIG. 3(b) show SDS electrophoretic images after incubation for 3 hours and 6 hours, respectively.
Effect on Rat Enucleated Retina Cytopathy Under Hypoxia Method:
The ocular fundus tissue (retina) of male SD rats (b. wt. 150 g) was removed and incubated under hypoxia in RPMI 1640 medium (manufactured by (Gibco) without glucose. The ocular fundus tissue was homogenized 3 and 6 hours later, and the cleavage product of endocellular spectrin was isolated by SDS electrophoresis and detected using homophil prepared by the method of Saido et. al. [The Journal of Biological Chemistry, 268, 25239-25243 (1993)]. As the test compounds, Compound 1 and MDL were dissolved in ethanol to a concentration of 20 mM and added to the culture medium to a concentration of 100 μM (Compound 1 administration group and MDL administration group). As a control, the ocular fundus tissue of male SD rats (b. wt. 150 g) was incubated in the same manner in the presence of oxygen in RPMI 1640 medium containing glucose.

Structure (SMILES)	inhibition of the decrease in ganglion cell count caused by arterial occlusion [1]	inhibition of the decrease in inner nuclear layer cell count caused by arterial occlusion [1]	145 kDa band (cleavage product of spectrin) (calpain)	150 kDa band due to the digestion of spectrin (calpain)
CC(C)C[C@@H](C=O)NC(=O)[C@@H](NS(=O)(=O)c1ccc(F)cc1)C(C)C [Compound 1, N-(4-fluorophenylsulfonyl)-L-valyl-L-leucinal]	significantly inhibited	significantly inhibited	not detected	somewhat detected
CC(C)[C@H](NC(=O)OCc1ccccc1)C(=O)N[C@H](C=O)Cc1ccccc1 [MDL, Cbz-Val-Phe-H] (Cbz-Val-Phe-aldehyde)	slight	slight	not detected	somewhat detected
